Results reported in ChEMBL document CHEMBL1201862, “PubChem BioAssay data set” (2004).
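Protocol summary: plate cells (96-well), add compound at 5 concentrations, incubate 48 h, interpolate endpoints linearly. GI50 is the concentration that inhibits growth by half.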 Calls of active or inactive are those of the source. Rule as the data show it: active = GI50 up to about 1.1 µM and inactive = higher.

What was measured:
Experiment in all cases: NCI-60 cell line screen, 48 h
[1] = test system: Malme-3M
[2] = test system: HCC 2998
[3] = test system: UO-31
[4] = test system: NCI-H522
[5] = test system: IGROV-1
[6] = test system: KM12
[7] = test system: CCRF-CEM
[8] = test system: M14
[9] = test system: Hs-578T
[10] = test system: NCI/ADR-RES
[11] = test system: PC-3
[12] = test system: OVCAR-8
[13] = test system: RXF 393
[14] = test system: A549
[15] = test system: SN12C
[16] = test system: U-251
[17] = test system: SNB-19
[18] = test system: K562
[19] = test system: SK-MEL-28
[20] = test system: SF-268

Compound	GI50 [1]	GI50 [2]	GI50 [3]	GI50 [4]	GI50 [5]	GI50 [6]	GI50 [7]	GI50 [8]	GI50 [9]	GI50 [10]	GI50 [11]	GI50 [12]	GI50 [13]	GI50 [14]	GI50 [15]	GI50 [16]	GI50 [17]	GI50 [18]	GI50 [19]	GI50 [20]
Nc1nc(N)c2nc(CNc3ccc(C(=O)O)cc3)[nH]c2n1	> 100 µM (inactive)	27.9 µM (inactive)	> 100 µM (inactive)	> 100 µM (inactive)	> 100 µM (inactive)	> 100 µM (inactive)	> 100 µM (inactive)	> 100 µM (inactive)	> 100 µM (inactive)	> 100 µM (inactive)	> 100 µM (inactive)	> 100 µM (inactive)	> 100 µM (inactive)	> 100 µM (inactive)	> 100 µM (inactive)	> 100 µM (inactive)	> 100 µM (inactive)	> 100 µM (inactive)	> 100 µM (inactive)	> 100 µM (inactive)
Cc1ccccc1NC(=S)N/N=C1\C(=O)Nc2ccccc21	> 100 µM (inactive)	> 100 µM (inactive)	> 100 µM (inactive)	> 100 µM (inactive)	> 100 µM (inactive)	> 100 µM (inactive)	> 100 µM (inactive)	> 100 µM (inactive)	> 100 µM (inactive)	> 100 µM (inactive)	> 100 µM (inactive)	> 100 µM (inactive)	> 100 µM (inactive)	> 100 µM (inactive)	> 100 µM (inactive)	> 100 µM (inactive)	> 100 µM (inactive)	> 100 µM (inactive)	15.1 µM (inactive)	15.1 µM (inactive)
COc1cccc(-c2nc(O)c3ccccc3n2)c1	21.6 µM (inactive)	22.3 µM (inactive)	22.4 µM (inactive)	23.2 µM (inactive)	24.5 µM (inactive)	25 µM (inactive)	> 10 µM (inactive)	50.2 µM (inactive)	19.6 µM (inactive)	18.1 µM (inactive)	20.1 µM (inactive)	28.4 µM (inactive)	25.4 µM (inactive)	21 µM (inactive)	33.9 µM (inactive)	7.31 µM (inactive)	19.8 µM (inactive)	38.5 µM (inactive)	28.1 µM (inactive)	19.4 µM (inactive)
CC1=CC=CC(C)(C)CC1(O[Si](C)(C)C)C(F)(F)F (stereo not given)	> 100 µM (inactive)	> 100 µM (inactive)	> 100 µM (inactive)	43.3 µM (inactive)	26.6 µM (inactive)	> 100 µM (inactive)	> 100 µM (inactive)	> 100 µM (inactive)	> 100 µM (inactive)	> 100 µM (inactive)	> 100 µM (inactive)	> 100 µM (inactive)	> 100 µM (inactive)	64.3 µM (inactive)	> 100 µM (inactive)	98.9 µM (inactive)	> 100 µM (inactive)	76.4 µM (inactive)	> 100 µM (inactive)	> 100 µM (inactive)
COC(=O)c1ccccc1C1CN=NC12Cc1c(C)cc(C)cc1C2=O (stereo not given)	> 100 µM (inactive)	> 100 µM (inactive)	> 100 µM (inactive)	8.34 µM (inactive)	> 100 µM (inactive)	> 100 µM (inactive)	> 100 µM (inactive)	> 100 µM (inactive)	> 100 µM (inactive)	> 100 µM (inactive)	> 100 µM (inactive)	> 100 µM (inactive)	> 100 µM (inactive)	> 100 µM (inactive)	> 100 µM (inactive)	> 100 µM (inactive)	> 100 µM (inactive)	> 100 µM (inactive)	> 100 µM (inactive)	> 100 µM (inactive)
COc1ccc2c(CCNS(=O)(=O)c3ccccc3)c(C(C)=O)[nH]c2c1	> 100 µM (inactive)	> 100 µM (inactive)	9.51 µM (inactive)	20.5 µM (inactive)	34.4 µM (inactive)	54.2 µM (inactive)	> 65.2 µM (inactive)	> 64.4 µM (inactive)	46 µM (inactive)	63.2 µM (inactive)	> 71.9 µM (inactive)	> 69.3 µM (inactive)	> 100 µM (inactive)	54.3 µM (inactive)	38.5 µM (inactive)	> 74.3 µM (inactive)	66.7 µM (inactive)	> 74 µM (inactive)	63.8 µM (inactive)	52.1 µM (inactive)
O=C1C=C(Nc2ccccc2C(=O)CC(=O)C(=O)Nc2cccc(C(F)(F)F)c2)c2ccccc2C1=O	15.1 µM (inactive)	> 41.8 µM (inactive)	31.2 µM (inactive)	23.1 µM (inactive)	28.4 µM (inactive)	24 µM (inactive)	4.37 µM (inactive)	16.6 µM (inactive)	21 µM (inactive)	13.5 µM (inactive)	17.9 µM (inactive)	17.3 µM (inactive)	20.8 µM (inactive)	46.5 µM (inactive)	17.1 µM (inactive)	31.3 µM (inactive)	54.3 µM (inactive)	8.32 µM (inactive)	24.1 µM (inactive)	17.2 µM (inactive)
COc1cc(/C=N\O)nc(-c2ccccn2)c1	0.741 µM (active)	46.8 µM (inactive)	0.161 µM (active)	0.129 µM (active)	0.202 µM (active)	0.55 µM (active)	0.175 µM (active)	0.259 µM (active)	47.2 µM (inactive)	0.36 µM (active)	2.43 µM (inactive)	0.2 µM (active)	0.363 µM (active)	0.344 µM (active)	0.264 µM (active)	0.553 µM (active)	1.11 µM (active)	0.399 µM (active)	0.729 µM (active)	0.452 µM (active)
CC(C)N(C(C)C)S(=O)(=O)CC12CCC(C/C1=N\O)C2 (stereo not given)	> 100 µM (inactive)	> 100 µM (inactive)	> 100 µM (inactive)	> 100 µM (inactive)	> 100 µM (inactive)	> 100 µM (inactive)	> 100 µM (inactive)	> 100 µM (inactive)	> 100 µM (inactive)	> 100 µM (inactive)	> 100 µM (inactive)	> 100 µM (inactive)	> 100 µM (inactive)	> 100 µM (inactive)	> 100 µM (inactive)	> 100 µM (inactive)	> 100 µM (inactive)	> 100 µM (inactive)	> 100 µM (inactive)	> 100 µM (inactive)
COC(=O)c1c(O)ccc2c1c1c(n2Cc2cc(OC)cc(OC)c2)C(=O)c2ccccc2C1=O	6.34 µM (inactive)	2.72 µM (inactive)	4.56 µM (inactive)	3.03 µM (inactive)	5.06 µM (inactive)	3.23 µM (inactive)	3.7 µM (inactive)	8.13 µM (inactive)	7.55 µM (inactive)	4.06 µM (inactive)	4.39 µM (inactive)	3.72 µM (inactive)	8.32 µM (inactive)	5.07 µM (inactive)	6.03 µM (inactive)	8.26 µM (inactive)	24.4 µM (inactive)	5.28 µM (inactive)	13.7 µM (inactive)	8.32 µM (inactive)
CN(C)CC1(Cc2ccccc2)CCC(Cc2ccccc2)C1=O (stereo not given)	12.5 µM (inactive)	7.05 µM (inactive)	16.9 µM (inactive)	2.84 µM (inactive)	9.04 µM (inactive)	8.36 µM (inactive)	2.79 µM (inactive)	10.1 µM (inactive)	15.6 µM (inactive)	9.68 µM (inactive)	10.1 µM (inactive)	5.73 µM (inactive)	13.9 µM (inactive)	17.3 µM (inactive)	9.77 µM (inactive)	17.5 µM (inactive)	16 µM (inactive)	2.79 µM (inactive)	12.3 µM (inactive)	14.8 µM (inactive)
N#CC1C=Cc2ccccc2N1C(=O)Oc1ccccc1 (stereo not given)	48.4 µM (inactive)	40.1 µM (inactive)	41.7 µM (inactive)	22 µM (inactive)	68.2 µM (inactive)	37.2 µM (inactive)	19.9 µM (inactive)	46.7 µM (inactive)	60 µM (inactive)	55.5 µM (inactive)	52.1 µM (inactive)	48.8 µM (inactive)	66.4 µM (inactive)	49.2 µM (inactive)	45.9 µM (inactive)	44.1 µM (inactive)	74.8 µM (inactive)	32.3 µM (inactive)	> 100 µM (inactive)	55.1 µM (inactive)
O=C(Nn1c(-c2ccccc2)nc2ccccc2c1=O)c1ccc(O)cc1	> 100 µM (inactive)	> 100 µM (inactive)	> 100 µM (inactive)	> 100 µM (inactive)	> 100 µM (inactive)	> 100 µM (inactive)	> 100 µM (inactive)	> 100 µM (inactive)	> 100 µM (inactive)	> 100 µM (inactive)	> 100 µM (inactive)	> 100 µM (inactive)	> 100 µM (inactive)	> 100 µM (inactive)	> 100 µM (inactive)	> 100 µM (inactive)	> 100 µM (inactive)	> 100 µM (inactive)	> 100 µM (inactive)	> 100 µM (inactive)
CCOC(=O)/C=C\C(C#N)(C#N)/N=C/c1ccsc1	2.29 µM (inactive)	16 µM (inactive)	2.7 µM (inactive)	0.9 µM (active)	14.5 µM (inactive)	19.5 µM (inactive)	0.207 µM (active)	3.08 µM (inactive)	19.5 µM (inactive)	3.84 µM (inactive)	8.99 µM (inactive)	3.86 µM (inactive)	2.26 µM (inactive)	19.1 µM (inactive)	18.2 µM (inactive)	17.1 µM (inactive)	23.1 µM (inactive)	3.13 µM (inactive)	2.38 µM (inactive)	6.75 µM (inactive)
